From paper PMC6353801, “Enhanced Anti-diabetic Effect of Berberine Combined With Timosaponin B2 in Goto-Kakizaki Rats, Associated With Increased Variety and Exposure of Effective Substances Through Intestinal Absorption” (Frontiers in Pharmacology, 2019)

Assays:
[1] = usually in various species; ref Liu et al., 2016; cited from earlier work
[2] = test system: primary rat hepatocytes; experiment: Hepatic metabolism in primary hepatocytes; conditions: 3 h
[3] = test system: GK rats; experiment: Oral glucose tolerance test (OGTT) in GK rats on day 28; format: in vivo, rat; conditions: after 4 weeks of treatment, glucose 2 g/kg oral
Protocol: (§1) Four-week-old male GK rats were fed a high-fat diet, and age-matched non-diabetic Wistar rats were fed standard chow as the control group. Under these dietary conditions, blood glucose was estimated each week for 7 weeks in 12-h fasted rats using a portable glucometer (One Touch Sure Step Meter, Johnson & Johnson, United States) by drawing the blood from the tail vein. GK rats with fasting blood glucose levels (FBG) above 16.7 mM were considered as diabetic rats, and only uniformly diabetic rats were used in this study. […] All the drugs were suspended in 0.5% carboxymethylcellulose sodium (CMC-Na) solution for oral gavage (10 ml/kg) once per day (at 9:00) for 6 weeks. Simultaneously, the Wistar and vehicle groups received vehicle over the treatment period. Food consumption and body weight were measured every week throughout the experimental periods. Non-fasting blood glucose (NFBG) levels were determined by collecting blood samples from the tail vein (at 9:00), and FBG levels were determined after a 6-h fast (at 15:00) on days 0, 7, 14, 21, and 42. On day 28, an oral glucose tolerance test (OGTT) was performed after an overnight fast. […] On day 42, the rats were anesthetized with urethane (1.4 g/kg, dissolved in saline) after an overnight fast and were sacrificed to collect the liver, kidney, heart, and spleen. The organs were weighed after washing with saline and drying to calculate the organ coefficient, namely, the ratio between the weight of organs and the body in each rat.

[4] = Body weight, food intake, organ coefficients and side effects in GK rats; format: in vivo, rat
Protocol: as §1

[5] = test system: GK rats; experiment: NFBG and FBG levels in GK rats, 6-week oral treatment; format: in vivo, rat; conditions: during 6-week treatment, TB-2 33.3, BBR 66.7, TB-2+BBR 100, metformin 200 mg/kg/day
Protocol: as §1

SMILES: COc1ccc2cc3[n+](cc2c1OC)CCc1cc2c(cc1-3)OCO2 [BBR, berberine]
- bioavailability [1]: < 1%
- share of compound disappearing after incubation ([2]; BBR 1 μM, 37°C): approximately 80%
- effect on TB-2 levels after incubation ([2]; TB-2 1 μM, BBR (5 μM, 30 μM)): no improvement
- decrease in the AUC of blood glucose in OGTT vs vehicle [3]: didn’t significantly decrease
- decrease of blood glucose levels in OGTT at 30 min vs vehicle [3]: 24%
- effect on body weight or food consumption vs vehicle ([4]; 6-week oral treatment): no effect
- effect on organ coefficients (liver and kidney) vs vehicle ([4]; day 42): limited
- FBG levels compared with the vehicle group (in words) [5]: no significant differences
- NFBG levels compared with the vehicle group (in words) [5]: no significant differences
